Reference: ChEMBL document CHEMBL4825673, “Total and Semisyntheses of Polymyxin Analogues with 2-Thr or 10-Thr Modifications to Decipher the Structure-Activity Relationship and Improve the Antibacterial Activity” (J Med Chem, 2021)
Converted amounts (≈) assume the structure as drawn. Positions of bridges follow the written chain, without caps; N, C: chain ends. Non-standard residues stand in square brackets, D forms with d. Residues, ends and D or L forms follow the SMILES beside them. *: point of attachment. Octanoyl = CCCCCCCC(=O)*; Dab = NCC[C@H](N)C(=O)O

What was measured:
Acinetobacter baumannii [1] = assay: Antibacterial activity against Acinetobacter baumannii ABA15-4 assessed as inhibition of bacterial growth incubated for 24 hrs by broth microdilution method; format: functional; settings: read-out: MIC100
Escherichia coli [2] = assay: Antibacterial activity against Escherichia coli ECO-14-2 assessed as inhibition of bacterial growth incubated for 24 hrs by broth microdilution method; format: functional; settings: read-out: MIC100
Acinetobacter baumannii [3] = assay: Antibacterial activity against Acinetobacter baumannii ABA15-5 assessed as inhibition of bacterial growth incubated for 24 hrs by broth microdilution method; format: functional; settings: read-out: MIC100
Acinetobacter baumannii [4] = assay: Antibacterial activity against Acinetobacter baumannii AR15-4 assessed as inhibition of bacterial growth incubated for 24 hrs by broth microdilution method; format: functional; settings: read-out: MIC100
Acinetobacter baumannii [5] = assay: Antibacterial activity against Acinetobacter baumannii assessed as inhibition of bacterial growth incubated for 24 hrs by broth microdilution method; format: functional; settings: read-out: MIC100
Pseudomonas aeruginosa [6] = assay: Antibacterial activity against Pseudomonas aeruginosa PAE15-3 assessed as inhibition of bacterial growth incubated for 24 hrs by broth microdilution method; format: functional; settings: read-out: MIC100
Pseudomonas aeruginosa [7] = assay: Antibacterial activity against Pseudomonas aeruginosa PAE15-14 assessed as inhibition of bacterial growth incubated for 24 hrs by broth microdilution method; format: functional; settings: read-out: MIC100
Moraxella catarrhalis [8] = assay: Antibacterial activity against Moraxella catarrhalis assessed as inhibition of bacterial growth incubated for 24 hrs by broth microdilution method; format: functional; settings: read-out: MIC100
Klebsiella pneumoniae [9] = assay: Antibacterial activity against Klebsiella pneumoniae KPN+14-10 assessed as inhibition of bacterial growth incubated for 24 hrs by broth microdilution method; format: functional; settings: read-out: MIC100
Pseudomonas aeruginosa [10] = assay: Antibacterial activity against Pseudomonas aeruginosa PAO1 assessed as inhibition of bacterial growth incubated for 24 hrs by broth microdilution method; format: functional; settings: read-out: MIC100
Klebsiella pneumoniae [11] = assay: Antibacterial activity against Klebsiella pneumoniae assessed as inhibition of bacterial growth incubated for 24 hrs by broth microdilution method; format: functional; settings: read-out: MIC100
Pseudomonas aeruginosa [12] = assay: Antibacterial activity against Pseudomonas aeruginosa PR15-1 assessed as inhibition of bacterial growth incubated for 24 hrs by broth microdilution method; format: functional; settings: read-out: MIC100
Klebsiella pneumoniae [13] = assay: Antibacterial activity against Klebsiella pneumoniae KR15-2 assessed as inhibition of bacterial growth incubated for 24 hrs by broth microdilution method; format: functional; settings: read-out: MIC100
Acinetobacter baumannii [14] = assay: Antibacterial activity against Acinetobacter baumannii ABA15-6 assessed as inhibition of bacterial growth incubated for 24 hrs by broth microdilution method; format: functional; settings: read-out: MIC100
Escherichia coli [15] = assay: Antibacterial activity against Escherichia coli ECO+14-3 assessed as inhibition of bacterial growth incubated for 24 hrs by broth microdilution method; format: functional; settings: read-out: MIC100
Escherichia coli [16] = assay: Antibacterial activity against Escherichia coli ECO+14-2 assessed as inhibition of bacterial growth incubated for 24 hrs by broth microdilution method; format: functional; settings: read-out: MIC100
Pseudomonas aeruginosa [17] = assay: Antibacterial activity against Pseudomonas aeruginosa PAE15-8 assessed as inhibition of bacterial growth incubated for 24 hrs by broth microdilution method; format: functional; settings: read-out: MIC100
Pseudomonas aeruginosa [18] = assay: Antibacterial activity against Pseudomonas aeruginosa assessed as inhibition of bacterial growth incubated for 24 hrs by broth microdilution method; format: functional; settings: read-out: MIC100
Klebsiella pneumoniae [19] = assay: Antibacterial activity against Klebsiella pneumoniae KPN+14-8 assessed as inhibition of bacterial growth incubated for 24 hrs by broth microdilution method; format: functional; settings: read-out: MIC100
Moraxella catarrhalis [20] = assay: Antibacterial activity against Moraxella catarrhalis BCA15-3 assessed as inhibition of bacterial growth incubated for 24 hrs by broth microdilution method; format: functional; settings: read-out: MIC100
Pseudomonas aeruginosa [21] = assay: Antibacterial activity against Pseudomonas aeruginosa ATCC 27853 assessed as inhibition of bacterial growth incubated for 24 hrs by broth microdilution method; format: functional; settings: read-out: MIC100
Pseudomonas aeruginosa [22] = assay: Antibacterial activity against Pseudomonas aeruginosa PAE15-5 assessed as inhibition of bacterial growth incubated for 24 hrs by broth microdilution method; format: functional; settings: read-out: MIC100
Moraxella catarrhalis [23] = assay: Antibacterial activity against Moraxella catarrhalis BCA14-7 assessed as inhibition of bacterial growth incubated for 24 hrs by broth microdilution method; format: functional; settings: read-out: MIC100
Escherichia coli [24] = assay: Antibacterial activity against Escherichia coli assessed as inhibition of bacterial growth incubated for 24 hrs by broth microdilution method; format: functional; settings: read-out: MIC100
HK-2 = assay: Cytotoxicity against human HK-2 cells assessed as cell viability incubated for 72 hrs by CCK-8 assay; format: cell-based; settings: hk-2, 72 h

MIC (Acinetobacter baumannii [1]) [µg/mL] | MIC (Escherichia coli [2]) [µg/mL] | MIC (Acinetobacter baumannii [3]) [µg/mL] | MIC (Acinetobacter baumannii [4]) [µg/mL] | MIC (Pseudomonas aeruginosa [6]) [µg/mL] | MIC (Pseudomonas aeruginosa [7]) [µg/mL] | MIC (Moraxella catarrhalis [8]) [µg/mL] | MIC (Klebsiella pneumoniae [9]) [µg/mL] | MIC (Pseudomonas aeruginosa [10]) [µg/mL] | MIC (Klebsiella pneumoniae [11]) [µg/mL] | MIC (Pseudomonas aeruginosa [12]) [µg/mL] | MIC (Klebsiella pneumoniae [13]) [µg/mL] | MIC (Acinetobacter baumannii [14]) [µg/mL] | MIC (Escherichia coli [15]) [µg/mL] | MIC (Escherichia coli [16]) [µg/mL] | MIC (Pseudomonas aeruginosa [17]) [µg/mL] | MIC (Pseudomonas aeruginosa [18]) [µg/mL] | MIC (Klebsiella pneumoniae [19]) [µg/mL] | MIC (Moraxella catarrhalis [20]) [µg/mL] | MIC (Pseudomonas aeruginosa [22]) [µg/mL] | Compound | other results
0.06 (≈ 0.0439 µM) | 0.25 (≈ 0.183 µM) | 0.06 (≈ 0.0439 µM) | 0.125 (≈ 0.0915 µM) | 0.5 (≈ 0.366 µM) | 0.25 (≈ 0.183 µM) | > 32 | 2 (≈ 1.46 µM) | 1 (≈ 0.732 µM) | 2 (≈ 1.46 µM) | 0.5 (≈ 0.366 µM) | 4 (≈ 2.93 µM) | 0.03 (≈ 0.022 µM) | 0.25 (≈ 0.183 µM) | 2 (≈ 1.46 µM) | 0.5 (≈ 0.366 µM) | 0.125 (≈ 0.0915 µM) | 4 (≈ 2.93 µM) | 1 (≈ 0.732 µM) | 0.25 (≈ 0.183 µM) | CC[C@H](C)CCCCC(=O)N[C@@H](CCN)C(=O)N[C@H](C(=O)N[C@@H](CCN)C(=O)N[C@H]1CCNC(=O)[C@H]([C@@H](C)O)NC(=O)[C@H](CCN)NC(=O)[C@H](CCN)NC(=O)[C@H](CC(C)C)NC(=O)[C@@H](Cc2ccccc2)NC(=O)[C@H](CCN)NC1=O)[C@@H](C)OC(=O)[C@@H](N)Cc1ccc(O)cc1 | MIC (Acinetobacter baumannii [5]): 0.03 µg/mL (≈ 0.022 µM); MIC (Pseudomonas aeruginosa [21]): 0.125 µg/mL (≈ 0.0915 µM); MIC (Moraxella catarrhalis [23]): 32 µg/mL (≈ 23.4 µM); MIC (Escherichia coli [24]): 0.25 µg/mL (≈ 0.183 µM)
0.03 (≈ 0.0233 µM) | 0.06 (≈ 0.0466 µM) | 0.03 (≈ 0.0233 µM) | 0.03 (≈ 0.0233 µM) | 0.5 (≈ 0.389 µM) | 0.25 (≈ 0.194 µM) | > 32 | 0.5 (≈ 0.389 µM) | 1 (≈ 0.777 µM) | 0.5 (≈ 0.389 µM) | 0.25 (≈ 0.194 µM) | 0.5 (≈ 0.389 µM) | < 0.015 | 0.125 (≈ 0.0972 µM) | 0.5 (≈ 0.389 µM) | 0.5 (≈ 0.389 µM) | 0.03 (≈ 0.0233 µM) | 1 (≈ 0.777 µM) | 1 (≈ 0.777 µM) | 0.25 (≈ 0.194 µM) | CC(C)CCCCC(=O)N[C@@H](CCN)C(=O)N[C@H](C(=O)N[C@@H](CCN)C(=O)N[C@H]1CCNC(=O)[C@H]([C@@H](C)O)NC(=O)[C@H](CCN)NC(=O)[C@H](CCN)NC(=O)[C@H](CC(C)C)NC(=O)[C@@H](Cc2ccccc2)NC(=O)[C@H](CCN)NC1=O)[C@@H](C)OC(=O)[C@@H]1CCCN1 | Activity (HK-2): Non-Toxic; MIC (Pseudomonas aeruginosa [21]): 0.03 µg/mL (≈ 0.0233 µM); MIC (Moraxella catarrhalis [23]): 32 µg/mL (≈ 24.9 µM); MIC (Escherichia coli [24]): 0.06 µg/mL (≈ 0.0466 µM)
< 0.03 | 0.25 (≈ 0.21 µM) | 0.125 (≈ 0.105 µM) | 0.06 (≈ 0.0504 µM) | 0.25 (≈ 0.21 µM) | 0.25 (≈ 0.21 µM) | 16 (≈ 13.5 µM) | 2 (≈ 1.68 µM) | 4 (≈ 3.36 µM) | 2 (≈ 1.68 µM) | 0.25 (≈ 0.21 µM) | 2 (≈ 1.68 µM) | < 0.03 | 0.25 (≈ 0.21 µM) | 2 (≈ 1.68 µM) | 0.25 (≈ 0.21 µM) | 0.03 (≈ 0.0252 µM) | 8 (≈ 6.73 µM) | 1 (≈ 0.841 µM) | 0.125 (≈ 0.105 µM) | CCCCCCCC(=O)N[C@@H](CCN)C(=O)N[C@H](C(=O)N[C@@H](CCN)C(=O)N[C@H]1CCNC(=O)[C@H]([C@@H](C)O)NC(=O)[C@H](CCN)NC(=O)[C@H](CCN)NC(=O)[C@H](CC(C)C)NC(=O)[C@@H](Cc2ccccc2)NC(=O)[C@H](CCN)NC1=O)[C@@H](C)O (Octanoyl-[Dab]T[Dab][Dab][Dab][dF]L[Dab][Dab]T; lactam 4-C) | MIC (Acinetobacter baumannii [5]): 0.03 µg/mL (≈ 0.0252 µM); MIC (Moraxella catarrhalis [23]): 32 µg/mL (≈ 26.9 µM); MIC (Escherichia coli [24]): 0.25 µg/mL (≈ 0.21 µM)
